Drawing on patent US12319655B2, “RAF kinase inhibitors and methods of use thereof” (Deciphera Pharmaceuticals, LLC, priority 2021, dated 2025), this text covers IC50 for 41 compounds.

The structures appear in SMILES notation.

One assay has as its system WM3928 cells. In words: WM3928 Cell Proliferation Assay (2). Type of assay: cell-based. The protocol: WM3928 Cell Proliferation Assay (2)
WM3928 cells (#WM3928-01-0001) are obtained from Rockland Immunochemicals Inc (Gilbertsville, PA). Briefly, cells were grown in MCDB 153 medium (Sigma, #M7403, St. Louis, MO) supplemented with 20% Leibovitz's L-15 (ThermoFisher #11415-064, Waltham, MA), 2% heat inactivated fetal bovine serum (ThermoFisher, #A3840001, Waltham, MA), 5 μg/mL Insulin (Bovine Pancreas) (Sigma, #10516, St. Louis, MO), 1.68 mM Calcium Chloride (Sigma, #C-34006, St. Louis, MO) and 1% Penicillin/Streptomycin/L-Glutamine (ThermoFisher #10378016, Waltham, MA) at 37° C., 5% CO2, and 95% humidity. Cells are expanded until reaching 70-95% confluency at which point they are sub-cultured or harvested for assay use. Using the Beckman Coulter Echo 650, a serial dilution of test compound is dispensed into a 384-well black clear bottom plate in triplicate. Seven hundred fifty cells are added per well in 50 μL complete growth medium in the 384-well plate. Plates are incubated for 67-72 hours at 37° C., 5% CO2, and 95% humidity. At the end of the incubation, 10 μL of a 440 μM solution of resazurin (Sigma, #199303, St. Louis, MO) in PBS is added to each well of the plate and plates are incubated for an additional 3-6 hours at 37° C., 5% CO2, and 95% humidity. Plates are read on a Synergy2 or equivalent reader (Biotek, Winooski VT) using an excitation of 540 nm and an emission of 600 nm. Data is analyzed using Prism software (GraphPad, San Diego, CA) to calculate IC50 values.

The target in assay [1] is B-Raf kinase (SEQ. ID NO: 2) (Homo sapiens (Human), UniProt P15056). The assay can be described thus: Biochemical Assay for B-Raf (2). As to conditions: Table J, biochemical assay (2); read-out: BRAF (2). Here is the method: Biochemical Assay for B-Raf (2)
Activity of B-Raf kinase (SEQ. ID NO: 2) was determined spectroscopically using a coupled pyruvate kinase/lactate dehydrogenase assay that continuously monitors the ATP hydrolysis-dependent oxidation of NADH (e.g., Schindler et al., Science, 2000, 289, 1938-1942). Assays were conducted in 384-well plates (25 μL final volume) using 2 nM B-Raf (Sigma), 1.5 units pyruvate kinase, 2.1 units lactate dehydrogenase, 1 mM phosphoenol pyruvate, 0.7 mM NADH, 50 nM MEK (SignalChem), and 1 mM ATP in assay buffer (100 mM Tris, pH 7.5, 15 mM MgCl2, 0.5 mM DTT, 0.1% octyl-glucoside, 0.002% (w/v) BSA, and 0.002% Triton X-100). Inhibition of B-Raf was measured by adding serial diluted test compound (final assay concentration of 1% DMSO). A decrease in absorption at 340 nm was monitored hourly for 4 h at 30° C. on a multi-mode microplate reader (BioTek). The reaction rate was calculated using the 2 to 3 h time frame. The reaction rate at each concentration of compound was converted to percent inhibition using controls (i.e., reaction with no test compound and reaction with a known inhibitor) and IC50 values were calculated by fitting a four-parameter sigmoidal curve to the data using Prism (GraphPad software).

Sequence of B-Raf kinase (SEQ. ID NO: 2) (P15056 416-766): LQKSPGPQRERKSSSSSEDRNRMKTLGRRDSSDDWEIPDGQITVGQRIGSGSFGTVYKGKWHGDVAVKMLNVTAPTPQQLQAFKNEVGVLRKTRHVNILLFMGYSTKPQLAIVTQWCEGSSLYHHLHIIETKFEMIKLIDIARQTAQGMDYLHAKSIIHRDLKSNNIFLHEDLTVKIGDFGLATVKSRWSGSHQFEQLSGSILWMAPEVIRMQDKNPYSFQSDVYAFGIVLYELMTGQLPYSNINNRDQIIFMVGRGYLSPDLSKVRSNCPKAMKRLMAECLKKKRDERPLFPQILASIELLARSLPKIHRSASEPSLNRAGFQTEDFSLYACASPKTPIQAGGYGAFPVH

With `CNC(=O)c1cc(-c2cc(-c3cc(NC(=O)c4ccnc(C(C)(F)F)c4)ccc3C)ccn2)ccn1` [Example 441], the IC50 (in the assay with WM3928 cells; in assay [1]) was no more than 100 nM throughout.
In the case of `CNC(=O)c1cc(-c2cncc(-c3cc(NC(=O)c4ccnc(C(C)(C)C#N)c4)ccc3C)c2)ccn1` [Example 442], the IC50 (in the assay with WM3928 cells; in assay [1]) was no more than 100 nM in each case.
Consider `CNC(=O)c1cc(-c2cc(-c3cc(NC(=O)c4ccnc(C(C)C)c4)ccc3C)ccn2)ccn1` [Example 443], for which the IC50 (in the assay with WM3928 cells; in assay [1]) was no more than 100 nM throughout.
As for `CNC(=O)c1cc(-c2cc(-c3cc(NC(=O)c4ccnc(C(C)(C)F)c4)cnc3C)ccn2)ccn1` [Example 444], the IC50 (with WM3928 cells; in assay [1]) was 100 to 500 nM in each case.
Take `CNC(=O)c1cc(-c2cncc(-c3cc(NC(=O)c4ccnc(C(C)C)c4)ccc3C)c2)ccn1` [Example 445]: the IC50 (with WM3928 cells; in assay [1]) was no more than 100 nM in each case.
On to `CNC(=O)c1cc(-c2cncc(-c3cc(NC(=O)c4ccnc(C(C)C)c4)ccc3C)c2)ncn1` [Example 446], for which the IC50 (in the assay on WM3928 cells; in assay [1]) was no more than 100 nM throughout.
For the compound `Cc1ccc(NC(=O)c2ccnc(C(C)(C)F)c2)cc1-c1ccnc(-c2ccnc(C#N)c2)c1` [Example 447], the IC50 in the assay on WM3928 cells fell in the range of 500 to 1000 nM; in assay [1], 100 to 500 nM.
On the same counts, the results for `Cc1ccc(NC(=O)c2ccnc(C(C)(C)F)c2)cc1-c1ccnc(-c2ccnc(C(=O)NCCO)c2)c1` [Example 448] are no more than 100 nM and 100 to 500 nM.
The matching figures for `CNC(=O)c1cc(-c2cc(-c3cc(NC(=O)c4ccnc(C(C)(C)F)c4)ccc3C)cc(OCCO)n2)ccn1` [Example 449]: no more than 100 nM and 100 to 500 nM.
The matching figures for `Cc1ccc(NC(=O)c2ccnc(C(C)(C)F)c2)cc1-c1ccnc(-c2ccnc(C(=O)NC3CN(C)C3)c2)c1` [Example 450]: 100 to 500 nM and 100 to 500 nM.
In the case of `Cc1ccc(NC(=O)c2ccnc(C(C)(C)F)c2)cc1-c1ccnc(-c2ccnc(C(=O)NCC#N)c2)c1` [Example 451], the IC50 (in the assay with WM3928 cells; in assay [1]) was no more than 100 nM throughout.
`CNC(=N)c1cc(-c2cc(-c3cc(NC(=O)c4ccnc(C(C)(C)F)c4)ccc3C)ccn2)ccn1` [Example 452]: the IC50 with WM3928 cells is 100 to 500 nM; in assay [1], no more than 100 nM.
The matching figures for `Cc1ccc(NC(=O)c2ccnc(C(C)(C)F)c2)cc1-c1ccnc(-c2ccnc(C(=O)NCCN(C)C)c2)c1` [Example 453]: 100 to 500 nM and no more than 100 nM.
The matching figures for `Cc1ncc(NC(=O)c2ccnc(C(C)(C)F)c2)cc1-c1ccnc(-c2ccnc(NC(=O)C3CC3)c2)c1` [Example 454]: no more than 100 nM and no more than 100 nM.
On the same counts, the results for `Cc1ccc(NC(=O)c2ccnc(C(C)(C)F)c2)cc1-c1ccnc(-c2ccnc(NC(=O)C3CC3)c2)c1` [Example 455] are no more than 100 nM and no more than 100 nM.
Regarding `Cc1ccc(NC(=O)c2ccnc(C(C)(C)C#N)c2)cc1-c1ccnc(-c2ccnc(NC(=O)C3CC3)c2)c1` [Example 456], the IC50 (with WM3928 cells; in assay [1]) was no more than 100 nM each time.
As for `Cc1ccc(NC(=O)c2ccnc(C3(C#N)CC3)c2)cc1-c1ccnc(-c2ccnc(NC(=O)C3CC3)c2)c1` [Example 457], the IC50 (in the assay on WM3928 cells; in assay [1]) was no more than 100 nM in each case.
Turning to `Cc1ccc(NC(=O)c2ccnc(C3CC3)c2)cc1-c1ccnc(-c2ccnc(NC(=O)C3CC3)c2)c1` [Example 458], the IC50 (in the assay on WM3928 cells; in assay [1]) was no more than 100 nM in each case.
With `Cc1ccc(NC(=O)c2ccnc(C(C)(F)F)c2)cc1-c1ccnc(-c2ccnc(NC(=O)C3CC3)c2)c1` [Example 459], the IC50 (in the assay on WM3928 cells; in assay [1]) was no more than 100 nM throughout.
For `CNC(=O)c1cc(-c2cc(-c3cc(NC(=O)c4ccnc(C5CC5)c4)ccc3C)ccn2)ccn1` [Example 460], the IC50 (in the assay with WM3928 cells; in assay [1]) was no more than 100 nM throughout.
For the compound `Cc1ncc(NC(=O)c2ccnc(C3(C#N)CC3)c2)cc1-c1ccnc(-c2ccnc(NC(=O)C3CC3)c2)c1` [Example 461], the IC50 (in the assay on WM3928 cells; in assay [1]) was no more than 100 nM throughout.
For the compound `CNC(=O)c1cc(-c2cc(-c3cc(NC(=O)c4ccnc(C5CC5)c4)cnc3C)ccn2)ccn1` [Example 462], the IC50 fell in the range of 500 to 1000 nM in the assay on WM3928 cells and 100 to 500 nM in assay [1].
The matching figures for `CNC(=O)c1cc(-c2cc(-c3cc(NC(=O)c4ccnc(C(C)(F)F)c4)cnc3C)ccn2)ccn1` [Example 463]: 100 to 500 nM and 100 to 500 nM.
On the same counts, the results for `CNC(=O)c1cc(-c2cc(-c3cc(NC(=O)c4ccnc(C5(C#N)CC5)c4)cnc3C)ccn2)ccn1` [Example 464] are 100 to 500 nM and 100 to 500 nM.
On the same counts, the results for `CNC(=O)c1cc(-c2cc(-c3cc(NC(=O)c4ccnc(C(C)C)c4)cnc3C)ccn2)ccn1` [Example 465] are 100 to 500 nM and 100 to 500 nM.
Turning to `Cc1ncc(NC(=O)c2ccnc(C(C)(F)F)c2)cc1-c1ccnc(-c2ccnc(NC(=O)C3CC3)c2)c1` [Example 466], the IC50 (in the assay on WM3928 cells; in assay [1]) was no more than 100 nM each time.
For the compound `Cc1ccc(NC(=O)c2ccnc(C(C)C)c2)cc1-c1ccnc(-c2ccnc(NC(=O)C3CC3)c2)c1` [Example 467], the IC50 (in the assay on WM3928 cells; in assay [1]) was no more than 100 nM each time.
Take `Cc1ncc(NC(=O)c2ccnc(C(C)C)c2)cc1-c1ccnc(-c2ccnc(NC(=O)C3CC3)c2)c1` [Example 468]: the IC50 (in the assay with WM3928 cells; in assay [1]) was no more than 100 nM each time.
For the compound `CNC(=O)c1cc(-c2cc(-c3cc(NC(=O)c4ccnc(C(C)(C)F)c4)ccc3C)c(F)cn2)ccn1` [Example 469], the IC50 in the assay on WM3928 cells was 100 to 500 nM; in assay [1], no more than 100 nM.
As to `CNC(=O)c1cc(-c2cc(-c3cc(NC(=O)c4ccnc(C(C)(C)F)c4)ccc3C)cc(C)n2)ccn1` [Example 470], the IC50 was no more than 100 nM in the assay on WM3928 cells and 100 to 500 nM in assay [1].
On the same counts, the results for `CNC(=O)c1cc(-c2cc(-c3cc(NC(=O)c4ccnc(C(C)(C)F)c4)ccc3C(F)(F)F)ccn2)ccn1` [Example 471] are 1000 to 10000 nM and 1000 to 10000 nM.
The matching figures for `CNC(=O)c1cc(-c2cc(-c3cc(NC(=O)c4ccnc(C(C)(C)F)c4)ccc3C)c(C)cn2)ccn1` [Example 472]: 500 to 1000 nM and 500 to 1000 nM.
As to `CNC(=O)c1cc(-c2cc(-c3cc(NC(=O)c4ccnc(C(C)(C)F)c4)ccc3C)cnn2)ccn1` [Example 473], the values for the IC50 (with WM3928 cells; in assay [1]) were no more than 100 nM and 100 to 500 nM, respectively.
On the same counts, the results for `CNC(=O)c1cc(-c2cc(-c3cc(NC(=O)c4ccnc(C(C)(C)F)c4)ccc3C)ncn2)ccn1` [Example 474] are no more than 100 nM and no more than 100 nM.
The matching figures for `CNC(=O)c1cc(-c2cc(-c3cc(F)cc(NC(=O)c4ccnc(C(C)(C)F)c4)c3F)ccn2)ccn1` [Example 475]: 1000 to 10000 nM and 1000 to 10000 nM.
For `Cc1ccc(NC(=O)c2ccnc(C(C)(C)F)c2)cc1-c1ccnc(-c2ccnc(C(N)=O)c2)c1` [Example 476], the IC50 (with WM3928 cells; in assay [1]) was no more than 100 nM in each case.
For the compound `CNC(=O)c1cc(-c2cc(-c3cc(NC(=O)c4cnnc(C(F)(F)F)c4)ccc3C)ccn2)ccn1` [Example 477], the IC50 in the assay on WM3928 cells was 500 to 1000 nM; in assay [1], no more than 100 nM.
On the same counts, the results for `CNC(=O)c1cc(-c2cc(-c3cc(NC(=O)c4ccnc(C(C)(C)F)c4)cc(F)c3F)ccn2)ccn1` [Example 478] are 100 to 500 nM and 100 to 500 nM.
The matching figures for `CNC(=O)c1cc(-c2cc(-c3cc(NC(=O)c4ccnc(C(C)(C)F)c4)ccc3F)ccn2)ccn1` [Example 479]: no more than 100 nM and 100 to 500 nM.
On the same counts, the results for `CNC(=O)c1cc(-c2cc(-c3cc(NC(=O)c4ccnc(C(C)(C)F)c4)cc(F)c3C)ccn2)ccn1` [Example 480] are no more than 100 nM and 100 to 500 nM.
For `CNC(=O)c1cc(-c2cc(-c3cc(NC(=O)c4ccnc(C(C)(C)F)c4)ccn3)ccn2)ccn1` [Example 481], the IC50 (in the assay on WM3928 cells; in assay [1]) was 1000 to 10000 nM in each case.
